The record followed here is paper PMC5224518, “Hydrophobic mismatch demonstrated for membranolytic peptides, and their use as molecular rulers to measure bilayer thickness in native cells” (Scientific Reports, 2015).

Where two headings read alike, the source gives them in different places. Ends that are not written are not given here. Bounds are passed on as bounds.

The test system of data set [1] is Pseudomonas aeruginosa (DSM 1117). The data set is classed as cell-based. The method, then: (§1) Antimicrobial activity was measured by a standard MIC assay, carried out with Gram-positive Staphylococcus aureus (DSM 1104) and Enterococcus faecalis (DSM 2570) and with Gram-negative Escherichia coli (DSM 1103) and Pseudomonas aeruginosa (DSM 1117), as previously reported. Briefly, bacteria were grown in Müller-Hinton medium at 37°C overnight. Microtiter plates (96 wells of 100 μL) were filled with 50 μL of Müller-Hinton medium, and serial 2-fold dilutions of peptides were arranged in quadruple. The two final rows of each plate remained without peptide, so that the penultimate data point served as the positive control (no peptide), and the final one as the negative control (not inoculated). 50 μL of bacterial suspension (OD = 0.2) was added to the wells (except for the final row of each plate) to give a final concentration of 10^6 colony-forming units (CFU)/mL.

Data set [2] concerns Escherichia coli (DSM 1103). The data set is classed as cell-based. As for the experimental part:
as §1

The test system of data set [3] is Enterococcus faecalis (DSM 2570). The data set is classed as cell-based. As for the experimental part:
as §1

The test system of data set [4] is Staphylococcus aureus (DSM 1104). In kind it is cell-based. The method, then: as §1
Data set [5] is described as follows: Vesicle leakage assay (ANTS/DPX fluorescence dequenching). In kind it is biochemical. Particulars: for percentage of leakage: P/L = 1:12.5, after 10 minutes, 100 μM lipid, 30°C, pH 7.5, relative to Triton X-100 = 100%. As for the experimental part: For the leakage experiments, the buffer in which the vesicles were prepared contained the fluorophor ANTS (12.5 mM), the quencher DPX (45 mM), 50 mM NaCl, and 10 mM HEPES (pH 7.5). Liposomes were prepared by co-dissolving PC/PG 1:1 (mol/mol) mixtures of the lipids with different chain length in CHCl3/MeOH (3:1 v/v), together with 10^−2 mol% Rhod-PE by which the lipid loss during vesicle preparation (extrusion and gel filtration, see below) could be quantified. The peptide-to-lipid ratio (P/L) is given in mol/mol. The lipid mixture was dried under N2(g) and left to dry under vacuum overnight. The obtained thin film was then re-suspended in the buffer which contained the fluorophor and the quencher by vigorous vortexing, followed by 10 freeze-thaw cycles. Large unilamellar vesicles (LUV) were obtained by 21-fold extrusion (Avanti Mini Extruder; Avanti Polar Lipids, Alabaster, AL) of the liposomes through a Nuclepore polycarbonate membrane (pore size 100 nm, Whatman - GE Healthcare Europe, Freiburg, Germany) at a temperature 20°C above the lipid phase transition. Unencapsulated dye was removed by gel filtration using spin columns filled with Sephacryl 100-HR (Sigma-Aldrich, Taufkirchen, Germany), and equilibrated with an elution buffer (150 mM NaCl, 10 mM HEPES, pH 7.5) which balances the internal vesicle osmolarity.
Leakage of entrapped ANTS was monitored by fluorescence dequenching of ANTS[76]. Fluorescence measurements were performed in a thermostatted cuvette with constant stirring at 30°C in the same buffer as used for gel filtration on a FluoroMax2 spectrofluorimeter (HORIBA Jobin Yvon, Unterhaching, Germany) by setting the ANTS emission to 510 nm (5 nm slit) and its excitation to 355 nm (5 nm slit). The vesicles (100 μM lipid final concentration) of the desired composition were added to the cuvette containing the peptide at the P/L ratio to be tested (from 1 mM stock solutions in water). The level of 0% leakage corresponded to the fluorescence of the vesicles immediately after their addition, while 100% leakage was the fluorescence value obtained after addition of a 0.25 vol-% Triton X-100 after 10 min.

Data set [6] is described as follows: Circular dichroism, secondary structure deconvolution (CONTIN-LL). Particulars: CD, P/L 1:50, 30 μM peptide, 30°C; for Helicity: DMPC/DMPG (3:1) small unilamellar vesicles, 10 mM phosphate buffer pH 7, minimum helical content; for Percentage of secondary structure element: α-helix: DMPC/DMPG (3:1) vesicles. The data set is classed as physicochemical. As for the experimental part:
CD samples were prepared by co-solubilizing DMPC and DMPG (3:1 mol/mol) in chloroform/methanol 3:1 (v/v). After drying, the lipid film was dispersed in phosphate buffer (10 mM, pH 7) and homogenized by vortexing. Small unilamellar vesicles (SUVs) for CD samples were generated by sonication in a high-power ultrasonic bath with a beaker-shaped sonotrode (UTR 200, Hielscher, Germany). CD spectra were recorded on a J-815 spectropolarimeter (JASCO, Groß-Umstadt, Germany) between 260 and 185 nm at 0.1-nm intervals, using 1-mm quartz glass cells (Suprasil; Hellma, Müllheim, Germany) at 20°C, as reported previously. The peptides were measured at 20°C in 10 mM sodium phosphate buffer (pH 7.0) and at 30°C in lipid vesicles composed of DMPC/DMPG (3:1). Typical peptide concentrations of the final samples in phosphate buffer was 36–72 μM, and for the vesicle samples 30 μM with a peptide-to-lipid molar ratio (P/L) of 1:50. An averaged baseline of the pure solvent or lipid matrix, respectively, was subtracted. Finally, the spectra were converted to mean residue ellipticities (MRE) by using the weighed-in peptide amount and the volume of the sample for concentration determination. […] Although this ambiguity in peptide concentration leads most probably to an underestimation of the magnitude of the MRE values we attempted a quantitative deconvolution of CD data to estimate the relative contents of different secondary structure elements. If part of the weighted material was not peptide, this leads to an underestimating of the MRE, which also leads to an underestimation of the helical content. The values obtained are thus the minimum helical content of each peptide.
Secondary structure estimation from CD spectra was performed using the CONTIN-LL program, which is based on the ridge regression algorithm. The algorithm is provided by the DICHROWEB on-line server. The quality of the fit between experimental and back-calculated spectrum corresponding to the estimated secondary structure fractions was assessed from the normalized root mean square deviation (NRMSD), with a value <0.1 considered as a good fit[74].
For orientation: CD spectra are sensitive to the conformation of chiral molecules.

Where [7] appears, read: DErPC/DErPG 1:1 vesicles (34.4/34.4 Å).
Setting [8] is: DErPC/POPG 1:1 vesicles (34.4/27.8 Å).
The mark [9] stands for this setting: DMoPC/DOPG 1:1 vesicles (hydrophobic thickness 19.2/27.5 Å).
The mark [10] stands for this setting: POPC/DErPG 1:1 vesicles (27.1/34.4 Å).
[11] abbreviates: POPC/POPG 1:1 vesicles (27.1/27.8 Å).

The term MIC denotes the lowest concentration found to suppress growth. A lower MIC goes with inhibition by little substance. For the substance KIAGKIAKIAGKIAK-NH2 [KIA15], the MIC was >149 µM in data set [1] (DSM 1117, 20 h); >149 µM in data set [2] (DSM 1103, 20 h); >595 µM in data set [3] (DSM 2570, 20 h); >149 µM in data set [4] (DSM 1104, 20 h). In addition, the “antimicrobial activity (in words)” value in data set [2] (E. coli DSM 1103, MIC assay) is “completely inactive”. In addition, the percentage of leakage is 0% in data set [5] (setting [7]); 3% in data set [5] (setting [8]); 3% in data set [5] (setting [9]); 2% in data set [5] (setting [10]); 2% in data set [5] (setting [11]). The leakage in data set [5] (POPC/POPG vesicles, P/L = 1:50, time course over 600 s, Triton X-100 = 100%) is recorded as < 2%. In data set [6], this substance showed a Helicity of 69%. Further, the “Percentage of secondary structure element: α-helix” value in data set [6] worked out at 68.7%.
On to “GMASKAGAIAGKIAKVALKAL-NH2 [PGLa, reference compound]”, for which the MIC was 119 µM in data set [1] (P. aeruginosa, same assay as Table 2, given in µM); 15 µM in data set [2] (E. coli, same assay as Table 2, given in µM); >477 µM in data set [3] (E. faecalis, same assay as Table 2, given in µM); 30 µM in data set [4] (S. aureus, same assay as Table 2, given in µM).
With KIAGKIAKIAGKIA-NH2 [KIA14], the MIC in data set [1] (DSM 1117, 20 h) is >164 µM; in data set [2] (DSM 1103, 20 h), >164 µM; in data set [3] (DSM 2570, 20 h), >657 µM; in data set [4] (DSM 1104, 20 h), >164 µM.
In the case of KIAGKIAKIAGKIAKIAGKIA-NH2 [KIA21], the MIC in data set [1] (DSM 1117, 20 h) is 28 µM; in data set [2] (DSM 1103, 20 h), 1.7 µM; in data set [3] (DSM 2570, 20 h) it was 443 µM; in data set [4] (DSM 1104, 20 h), 3.5 µM.
In the case of KIAGKIAKIAGKIAKIAGKIAKIAGK-NH2 [KIA26], the MIC in data set [1] (DSM 1117, 20 h) was 5.6 µM; in data set [2] (DSM 1103, 20 h), 1.4 µM; in data set [3] (DSM 2570, 20 h), 22 µM; in data set [4] (DSM 1104, 20 h) it was 2.8 µM.
As for KIAGKIAKIAGKIAKIAGKIAK-NH2 [KIA22], the MIC was found to be 13 µM in data set [1] (DSM 1117, 20 h); 1.6 µM in data set [2] (DSM 1103, 20 h); 414 µM in data set [3] (DSM 2570, 20 h); 6.5 µM in data set [4] (DSM 1104, 20 h). The “antimicrobial activity (in words)” value was “somewhat active” in data set [1] (P. aeruginosa DSM 1117, MIC assay) and “hardly any activity” in data set [3] (E. faecalis DSM 2570, MIC assay). The percentage of leakage is listed as 6% in data set [5] (setting [7]); 85% in data set [5] (setting [8]); 100% in data set [5] (setting [9]); 26% in data set [5] (setting [10]); 100% in data set [5] (setting [11]). Further, the “kinetics (rate) of leakage” value in data set [5] (POPC/POPG vesicles, P/L = 1:50, time course over 600 s) is recorded as “slower kinetics”. This substance displayed a Helicity in data set [6] of 68%. Also, in data set [6], the “Percentage of secondary structure element: α-helix” value amounted to 67.7%.
For KIAGKIAKIAGKIAKIAGKIAKIA-NH2 [KIA24], the MIC in data set [1] (DSM 1117, 20 h) worked out at 6.0 µM; in data set [2] (DSM 1103, 20 h), 1.5 µM; in data set [3] (DSM 2570, 20 h) it was 24 µM; in data set [4] (DSM 1104, 20 h), 1.5 µM.
Turning to KIAGKIAKIAGKIAKIAGK-NH2 [KIA19], the MIC in data set [1] (DSM 1117, 20 h) is reported as 120 µM; in data set [2] (DSM 1103, 20 h), 15 µM; in data set [3] (DSM 2570, 20 h), >481 µM; in data set [4] (DSM 1104, 20 h), >120 µM.
The like results for KIAGKIAKIAGKIAKIA-NH2 [KIA17] were, in that order, 134 µM, 17 µM, >537 µM and 134 µM.
With “KIAGKIAKIAGKIAKIAGKIAKIAGKIA-NH2 [KIA28]”, the MIC in data set [1] (DSM 1117, 20 h) was 5.2 µM; in data set [2] (DSM 1103, 20 h) it was 2.6 µM; in data set [3] (DSM 2570, 20 h), 5.2 µM; in data set [4] (DSM 1104, 20 h) it was 2.6 µM.
